According to PubChem BioAssay AID1259407 (Chemical Carcinogenesis Research Information System (CCRIS), 2018):
The source made the active and inactive calls. No rule for the calls is given here.

Tested on: CCRIS mutagenicity, Ames/micronucleus/aberration tests
Experiment: CCRIS mutagenicity studies
[1] = Test System: AMES SALMONELLA TYPHIMURIUM, Strain/Indicator: TA98, Metabolic Activation: NONE, Method: STANDARD PLATE
[2] = Test System: AMES SALMONELLA TYPHIMURIUM, Strain/Indicator: TA100, Metabolic Activation: NONE, Method: STANDARD PLATE
[3] = Test System: AMES SALMONELLA TYPHIMURIUM, Strain/Indicator: TA1538, Metabolic Activation: NONE, Method: STANDARD PLATE

**Q.** Which results are given for `CC(C)(C)NCC(O)c1cc(Cl)c(N)c(C(F)(F)F)c1` (stereo not drawn)?
**A.** mutagenic call [1]: inactive; negative; mutagenic call (Test System: AMES SALMONELLA TYPHIMURIUM, Strain/Indicator: TA98, Metabolic Activation: RAT, LIVER, S-9, PCB, Method: STANDARD PLATE): inactive; negative; mutagenic call [2]: inactive; negative; mutagenic call (Test System: AMES SALMONELLA TYPHIMURIUM, Strain/Indicator: TA100, Metabolic Activation: RAT, LIVER, S-9, PCB, Method: STANDARD PLATE): inactive; negative; mutagenic call (Test System: AMES SALMONELLA TYPHIMURIUM, Strain/Indicator: TA1535, Metabolic Activation: NONE, Method: STANDARD PLATE): inactive; negative; mutagenic call (Test System: AMES SALMONELLA TYPHIMURIUM, Strain/Indicator: TA1535, Metabolic Activation: RAT, LIVER, S-9, PCB, Method: STANDARD PLATE): inactive; negative; mutagenic call (Test System: AMES SALMONELLA TYPHIMURIUM, Strain/Indicator: TA1537, Metabolic Activation: NONE, Method: STANDARD PLATE): inactive; negative; mutagenic call (Test System: AMES SALMONELLA TYPHIMURIUM, Strain/Indicator: TA1537, Metabolic Activation: RAT, LIVER, S-9, PCB, Method: STANDARD PLATE): inactive; negative; mutagenic call [3]: inactive; negative; mutagenic call (Test System: AMES SALMONELLA TYPHIMURIUM, Strain/Indicator: TA1538, Metabolic Activation: RAT, LIVER, S-9, PCB, Method: STANDARD PLATE): inactive; negative

**Q.** `CC(=O)Nc1cccc2cc(F)cnc12` was tested. Which mutagenic call (Test System: AMES SALMONELLA TYPHIMURIUM, Strain/Indicator: TA100, Metabolic Activation: RAT, LIVER, S-9, PHENOBARBITAL AND 5,6-BENZOFLAVONE, Method: PREINCUBATION) did it give?
**A.** The mutagenic call was “active; positive”.

**Q.** For `CCCSP(=O)(OCC)SCCC`, which mutagenic call (End Point: In vitro chromosomal aberrations, Test System: Chinese hamster ovary (CHO) cells, Metabolic Activation: None) is on record?
**A.** Its mutagenic call is “inactive; negative”.

**Q.** What about the mutagenic call (End Point: UDS/DNA repair, Test System: Fischer 344 rat (male) hepatocytes, Metabolic Activation: None, Method: Autoradiography) of the same molecule?
**A.** Its mutagenic call is “inactive; negative”.

**Q.** And the mutagenic call (End Point: UDS, Test System: Fischer 344 rat hepatocytes, Metabolic Activation: None, Method: Autoradiography)?
**A.** Its mutagenic call is “inactive; negative”.

**Q.** And the mutagenic call (Test System: Ames Salmonella typhimurium, Strain/Indicator: TA98, Metabolic Activation: None, Method: Plate incorporation)?
**A.** Its mutagenic call is “inactive; negative”.

**Q.** And the mutagenic call (Test System: Ames Salmonella typhimurium, Strain/Indicator: TA98, Metabolic Activation: Rat, Liver, S-9, Method: Plate incorporation)?
**A.** The mutagenic call was “inactive; negative”.

**Q.** What about the mutagenic call (Test System: Ames Salmonella typhimurium, Strain/Indicator: TA100, Metabolic Activation: None, Method: Plate incorporation) of the same molecule?
**A.** The mutagenic call was “inactive; negative”.

**Q.** And the mutagenic call (Test System: Ames Salmonella typhimurium, Strain/Indicator: TA100, Metabolic Activation: Rat, Liver, S-9, Method: Plate incorporation)?
**A.** The mutagenic call was “inactive; negative”.

**Q.** And the mutagenic call (Test System: Ames Salmonella typhimurium, Strain/Indicator: TA1535, Metabolic Activation: None, Method: Plate incorporation)?
**A.** Its mutagenic call is “inactive; negative”.

**Q.** And the mutagenic call (Test System: Ames Salmonella typhimurium, Strain/Indicator: TA1535, Metabolic Activation: Rat, Liver, S-9, Method: Plate incorporation)?
**A.** Its mutagenic call is “inactive; negative”.

**Q.** What about the mutagenic call (Test System: Ames Salmonella typhimurium, Strain/Indicator: TA1537, Metabolic Activation: None, Method: Plate incorporation) of the same molecule?
**A.** Its mutagenic call is “inactive; negative”.

**Q.** And the mutagenic call (Test System: Ames Salmonella typhimurium, Strain/Indicator: TA1537, Metabolic Activation: Rat, Liver, S-9, Method: Plate incorporation)?
**A.** Its mutagenic call is “inactive; negative”.

**Q.** What about the mutagenic call (Test System: Ames Salmonella typhimurium, Strain/Indicator: TA1538, Metabolic Activation: None, Method: Plate incorporation) of the same molecule?
**A.** Its mutagenic call is “inactive; negative”.

**Q.** What about the mutagenic call (Test System: Ames Salmonella typhimurium, Strain/Indicator: TA1538, Metabolic Activation: Rat, Liver, S-9, Method: Plate incorporation) of the same molecule?
**A.** The mutagenic call was “inactive; negative”.

**Q.** What about the mutagenic call (Test System: Chinese hamster ovary, Strain/Indicator: CHO-K1-BH4 (HGPRT), Metabolic Activation: None, Method: Suspension/plate) of the same molecule?
**A.** Its mutagenic call is “inactive; negative”.

**Q.** And the mutagenic call (Test System: Chinese hamster ovary, Strain/Indicator: CHO-K1-BH4 (HGPRT), Metabolic Activation: Rat, Liver, S-9, Method: Suspension/plate)?
**A.** Its mutagenic call is “inactive; negative”.

**Q.** And the mutagenic call (Test System: Mouse lymphoma cells, Strain/Indicator: L5178Y cells, Metabolic Activation: None, Method: Plate)?
**A.** The mutagenic call was “inactive; negative”.

**Q.** What about the mutagenic call (Test System: Mouse lymphoma cells, Strain/Indicator: L5178Y cells, Metabolic Activation: S-9, Method: Plate) of the same molecule?
**A.** The mutagenic call was “inactive; negative”.

**Q.** For `O=S(=O)(O)c1ccc(N=Nc2c(O)ccc3ccccc23)cc1`, which mutagenic call (Test System: AMES SALMONELLA TYPHIMURIUM, Strain/Indicator: TA98, Metabolic Activation: HAMSTER, LIVER, S-9, Method: PREINCUBATION (PRIVAL METHOD)) is on record?
**A.** The mutagenic call was “inactive; negative”.

**Q.** What about the mutagenic call (Test System: AMES SALMONELLA TYPHIMURIUM, Strain/Indicator: TA98, Metabolic Activation: NONE, Method: PREINCUBATION) of the same molecule?
**A.** Its mutagenic call is “inactive; negative”.

**Q.** And the mutagenic call [1]?
**A.** The mutagenic call was “inactive; negative”.

**Q.** And the mutagenic call (Test System: AMES SALMONELLA TYPHIMURIUM, Strain/Indicator: TA98, Metabolic Activation: RAT LIVER S-9, AROCLOR 1254, Method: STANDARD PLATE)?
**A.** Its mutagenic call is “inactive; negative”.

**Q.** What about the mutagenic call (Test System: AMES SALMONELLA TYPHIMURIUM, Strain/Indicator: TA98, Metabolic Activation: RAT, LIVER, S-9, PHENOBARBITAL, Method: PREINCUBATION) of the same molecule?
**A.** The mutagenic call was “inactive; negative”.

**Q.** What about the mutagenic call (Test System: AMES SALMONELLA TYPHIMURIUM, Strain/Indicator: TA100, Metabolic Activation: NONE, Method: PREINCUBATION) of the same molecule?
**A.** The mutagenic call was “inactive; negative”.

**Q.** And the mutagenic call [2]?
**A.** The mutagenic call was “inactive; negative”.

**Q.** And the mutagenic call (Test System: AMES SALMONELLA TYPHIMURIUM, Strain/Indicator: TA100, Metabolic Activation: RAT LIVER S-9, AROCLOR 1254, Method: STANDARD PLATE)?
**A.** The mutagenic call was “inactive; negative”.

**Q.** What about the mutagenic call (Test System: AMES SALMONELLA TYPHIMURIUM, Strain/Indicator: TA100, Metabolic Activation: RAT, LIVER, S-9, PHENOBARBITAL, Method: PREINCUBATION) of the same molecule?
**A.** Its mutagenic call is “inactive; negative”.

**Q.** Which results are given for `O=Nc1ccc2c(c1)Cc1ccccc1-2`?
**A.** mutagenic call [1]: active; positive; mutagenic call (Test System: AMES SALMONELLA TYPHIMURIUM, Strain/Indicator: TA98, Metabolic Activation: RAT, LIVER, S-9, AROCLOR 1254, Method: STANDARD PLATE): active; positive; mutagenic call (Test System: AMES SALMONELLA TYPHIMURIUM, Strain/Indicator: TA98, Metabolic Activation: S-9, Method: STANDARD PLATE): active; positive; mutagenic call [2]: active; positive; mutagenic call (Test System: AMES SALMONELLA TYPHIMURIUM, Strain/Indicator: TA100, Metabolic Activation: S-9, Method: STANDARD PLATE): active; positive; mutagenic call [3]: active; positive
